Test results published in PubChem BioAssay (NCI).
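1) Cells in 96-well plates. 2) Compound, 48 h, 5 concentrations. 3) Linear interpolation between surrounding doses. 4) Unreached endpoint = highest concentration. Abbreviation: GI50, concentration required for 50% inhibition of growth. Definition used: TGI = concentration required for complete inhibition of growth.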

Experiments:
Test in all cases: inhibition of tumour cell growth, NCI panel, 48 h
HT29 colon = test system: HT29 colon
SK-MEL-2 melanoma = test system: SK-MEL-2 melanoma
MCF7 breast = test system: MCF7 breast
NCI-H226 lung = test system: NCI-H226 lung
HCT-15 colon = test system: HCT-15 colon
SNB-19 CNS = test system: SNB-19 CNS
HOP-92 NSCLC = test system: HOP-92 NSCLC
U251 CNS = test system: U251 CNS
OVCAR-3 ovarian = test system: OVCAR-3 ovarian
MDA-MB-435 = test system: MDA-MB-435
M14 melanoma = test system: M14 melanoma
NCI-H522 lung = test system: NCI-H522 lung
UO-31 renal = test system: UO-31 renal
OVCAR-8 ovarian = test system: OVCAR-8 ovarian
OVCAR-5 ovarian = test system: OVCAR-5 ovarian
NCI/ADR-RES ovarian = test system: NCI/ADR-RES ovarian
ACHN renal = test system: ACHN renal
786-0 renal = test system: 786-0 renal
SN12C renal = test system: SN12C renal
DU-145 prostate = test system: DU-145 prostate
K-562 leukemia = test system: K-562 leukemia
A549 NSCLC = test system: A549 NSCLC
SW-620 colon = test system: SW-620 colon
A498 renal = test system: A498 renal
SK-MEL-28 melanoma = test system: SK-MEL-28 melanoma
HCC-2998 colon = test system: HCC-2998 colon
TK-10 renal = test system: TK-10 renal
HL-60(TB) leukemia = test system: HL-60(TB) leukemia
SF-539 CNS = test system: SF-539 CNS

Cn1cc(/C=C2\C(=O)Nc3cccnc32)c2ccccc21
GI50 (HT29 colon): 13.1 µM
TGI (HT29 colon): > 25 µM
GI50 (SK-MEL-2 melanoma): 11.6 µM
TGI (SK-MEL-2 melanoma): > 25 µM
GI50 (MCF7 breast): 8.04 µM
TGI (MCF7 breast): > 25 µM
GI50 (NCI-H226 lung): 10.8 µM
TGI (NCI-H226 lung): > 25 µM
GI50 (HCT-15 colon): > 17.3 µM
TGI (HCT-15 colon): > 25 µM
GI50 (SNB-19 CNS): > 25 µM
TGI (SNB-19 CNS): > 25 µM
GI50 (HOP-92 NSCLC): 2.51 µM
TGI (HOP-92 NSCLC): 24.8 µM
GI50 (U251 CNS): > 25 µM
TGI (U251 CNS): > 25 µM
GI50 (OVCAR-3 ovarian): > 22.5 µM
TGI (OVCAR-3 ovarian): > 25 µM
GI50 (MDA-MB-435): 18 µM
TGI (MDA-MB-435): > 25 µM
GI50 (M14 melanoma): 9.32 µM
TGI (M14 melanoma): > 25 µM
GI50 (NCI-H522 lung): 14.7 µM
TGI (NCI-H522 lung): > 25 µM
GI50 (UO-31 renal): 4.86 µM
TGI (UO-31 renal): > 25 µM
GI50 (OVCAR-8 ovarian): 16.9 µM
TGI (OVCAR-8 ovarian): > 25 µM
GI50 (OVCAR-5 ovarian): > 25 µM
TGI (OVCAR-5 ovarian): > 25 µM
GI50 (NCI/ADR-RES ovarian): 20.4 µM
TGI (NCI/ADR-RES ovarian): > 25 µM
GI50 (ACHN renal): 11.5 µM
TGI (ACHN renal): > 25 µM
GI50 (786-0 renal): > 25 µM
TGI (786-0 renal): > 25 µM
GI50 (SN12C renal): 9.88 µM
TGI (SN12C renal): > 25 µM
GI50 (DU-145 prostate): 18 µM
TGI (DU-145 prostate): > 25 µM
GI50 (K-562 leukemia): > 18.4 µM
TGI (K-562 leukemia): > 25 µM
GI50 (A549 NSCLC): 11.8 µM
TGI (A549 NSCLC): > 25 µM
GI50 (SW-620 colon): 12.6 µM
TGI (SW-620 colon): > 25 µM
GI50 (A498 renal): 4.73 µM
TGI (A498 renal): > 25 µM
GI50 (SK-MEL-28 melanoma): > 25 µM
TGI (SK-MEL-28 melanoma): > 25 µM
GI50 (HCC-2998 colon): > 25 µM
TGI (HCC-2998 colon): > 25 µM
GI50 (TK-10 renal): 12.3 µM
TGI (TK-10 renal): > 25 µM
GI50 (HL-60(TB) leukemia): > 22.5 µM
TGI (HL-60(TB) leukemia): > 25 µM
GI50 (SF-539 CNS): > 25 µM
TGI (SF-539 CNS): > 25 µM
